For one experiment, the target named is μ-opioid receptor (Homo sapiens (Human), UniProt P35372). Description: μ-opioid receptor radioligand dose-displacement binding assay ([3H]-diprenorphine). To be noted: binding affinity, [3H]-diprenorphine displacement; read-out: Ki (nM) Opioid Receptor μ. As for the experimental part:
μ-Opioid Receptor Binding Assay Procedures: Radioligand dose-displacement binding assays for μ-opioid receptors used 0.3 nM [^3H]-diprenorphine (Perkin Elmer, Shelton, Conn.), with […] membrane protein/well in a final volume of 500 μl binding buffer (10 mM MgCl2, 1 mM EDTA, 5% DMSO, 50 mM HEPES, pH 7.4). Reactions were carried out in the absence or presence of increasing concentrations of unlabeled naloxone. All reactions were conducted in 96-deep well polypropylene plates for 2 hours at room temperature. Binding reactions were terminated by rapid filtration onto 96-well Unifilter GF/C filter plates (Perkin Elmer, Shelton, Conn.), presoaked in 0.5% polyethylenimine using a 96-well tissue harvester (Perkin Elmer, Shelton, Conn.) followed by performing three filtration washes with 500 μl of ice-cold binding buffer. Filter plates were subsequently dried at 50° C. for 2-3 hours. BetaScint scintillation cocktail (Perkin Elmer, Shelton, Conn.) was added (50 μl/well), and plates were counted using a Packard Top-Count for 1 min/well. The data were analyzed using the one-site competition curve fitting functions in GraphPad PRISM™ v. 3.0 or higher (San Diego, Calif.), or an in-house function for one-site competition curve-fitting.

The next experiment addresses ORL-1 receptor (Homo sapiens (Human), UniProt P41146). In words: ORL-1 receptor radioligand binding assay ([3H]-nociceptin). To be noted: binding affinity, [3H]-nociceptin displacement. As for the experimental part: ORL-1 Receptor Binding Assay Procedure: Membranes from recombinant HEK-293 cells expressing the human opioid receptor-like receptor (ORL-1) (Perkin Elmer, Shelton, Conn.) were prepared by lysing cells in ice-cold hypotonic buffer (2.5 mM MgCl2, 50 mM HEPES, pH 7.4) (10 ml/10 cm dish) followed by homogenization with a tissue grinder/Teflon pestle. Membranes were collected by centrifugation at 30,000×g for […] at 4° C. and pellets resuspended in hypotonic buffer to a final concentration of 1-3 mg/ml. Protein concentrations were determined using the BioRad protein assay reagent with bovine serum albumen as standard. Aliquots of the ORL-1 receptor membranes were stored at −80° C.
Radioligand binding assays (screening and dose-displacement) used 0.1 nM [^3H]-nociceptin (Perkin Elmer, Shelton, Conn.; 87.7 Ci/mmole) with 12 μg membrane protein in a final volume of 500 μl binding buffer (10 mM MgCl2, 1 mM EDTA, 5% DMSO, 50 mM HEPES, pH 7.4). Non-specific binding was determined in the presence of […] unlabeled nociceptin (American Peptide Company). All reactions were performed in 96-deep well polypropylene plates for 1 h at room temperature. Binding reactions were terminated by rapid filtration onto 96-well Unifilter GF/C filter plates (Perkin Elmer, Shelton, Conn.) presoaked in 0.5% polyethylenimine (Sigma). Harvesting was performed using a 96-well tissue harvester (Perkin Elmer, Shelton, Conn.) followed by three filtration washes with 500 μl ice-cold binding buffer. Filter plates were subsequently dried at 50° C. for 2-3 hours. Fifty μl/well scintillation cocktail (Perkin Elmer, Shelton, Conn.) was added and plates were counted in a Packard Top-Count for 1 min/well. The data from screening and dose-displacement experiments were analyzed using Microsoft Excel and the curve fitting functions in GraphPad PRISM™, v. 3.0 or higher, respectively, or an in-house function for one-site competition curve-fitting.

For experiment [1], the target named is T1, κ-opioid receptor (Homo sapiens (Human), UniProt P41145). Description: κ-opioid receptor radioligand dose-displacement binding assay ([3H]-U69,593). The note with it: binding affinity, [3H]-U69,593 displacement. A digest of the protocol: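 Competition binding with 0.4 nM [3H]-U69,593 and 15 μg membrane protein from HEK 293 cells expressing recombinant human κ receptor, in 50 mM Tris pH 7.4 with 5% DMSO, 1 h at about 25 °C. Nonspecific binding defined with 10 μM naloxone or U69,593; bound ligand collected by GF/C filtration and scintillation counting.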

The target in experiment [2] is T1, κ-opioid receptor. Description: κ-opioid receptor [35S]GTPγS functional assay, HEK-293 or CHO cells. The format is biochemical. The note with it: for Emax: relative to U69,593, HEK-293 or CHO cells.

`O=C(O)c1cc2c([nH]c1=O)C[C@]13CCN(CC4CC4)[C@H](Cc4ccc(O)cc41)[C@@H]3C2` [Compound 11, (6R,6aR,12aS)-15-(cyclopropylmethyl)-2-hydroxy-10-oxo-6,6a,7,10,11,12-hexahydro-5H-6,12a-(epiminoethano)naphtho[2,1-g]quinoline-9-carboxylic acid]: the inhibition constant Ki was 0.52 ± 0.12 nM at μ-opioid receptor, 4.91 ± 0.82 nM at ORL-1 receptor and 18.5 ± 7.73 nM on κ-opioid receptor [1]. This compound also returned a concentration giving a half-maximal response (EC50) at κ-opioid receptor [2] of 1.4 ± 0.56 nM. The Emax on κ-opioid receptor [2] came to 19 ± 1.53%.
On the same counts, the results for `O=C(O)c1cc2c([nH]c1=O)C[C@]13CCN(CC4CC4)[C@H](Cc4ccc(O)cc41)[C@]3(O)C2` [Compound 9, (6R,6aS,12aR)-15-(cyclopropylmethyl)-2,6a-dihydroxy-10-oxo-6,6a,7,10,11,12-hexahydro-5H-6,12a-(epiminoethano)naphtho[2,1-g]quinoline-9-carboxylic acid] are 3.11 ± 0.9 nM, 2320 ± 320 nM, 1.52 ± 0.18 nM, more than 20000 nM and 2.33 ± 1.33%.
On the same counts, the results for `NC(=O)c1cc2c([nH]c1=O)C[C@]13CCN(CC4CC4)[C@H](Cc4ccc(O)cc41)[C@]3(O)C2` [Compound 5, (6R,6aS,12aR)-15-(cyclopropylmethyl)-2,6a-dihydroxy-10-oxo-6,6a,7,10,11,12-hexahydro-5H-6,12a-(epiminoethano)naphtho[2,1-g]quinoline-9-carboxamide] are 6.55 ± 2.06 nM, 1330 ± 310 nM, 0.58 ± 0.15 nM, 4.37 ± 1.11 nM and 10.2 ± 1.18%.

Values taken from patent US8980906B2, “Pyridonemorphinan analogs and biological activity on opioid receptors” (Purdue Pharma L.P., priority 2012, dated 2015).
